The source of these data is patent US20250223284A1, “REVERSIBLE DPP1 INHIBITORS AND USES THEREOF” (Insmed Incorporated, priority 2023, published 2025).

Chain of human DPP1 enzyme (P53634 25-134): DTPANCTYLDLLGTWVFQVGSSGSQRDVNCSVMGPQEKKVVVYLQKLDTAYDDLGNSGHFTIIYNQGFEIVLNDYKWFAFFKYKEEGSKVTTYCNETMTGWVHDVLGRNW
Chain of human DPP1 enzyme (P53634 231-394): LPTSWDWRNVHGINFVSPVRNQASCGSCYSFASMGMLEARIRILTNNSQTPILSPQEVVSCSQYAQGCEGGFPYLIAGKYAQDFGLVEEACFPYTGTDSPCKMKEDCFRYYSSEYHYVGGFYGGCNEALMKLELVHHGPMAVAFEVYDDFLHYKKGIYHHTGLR
Chain of human DPP1 enzyme (P53634 395-463): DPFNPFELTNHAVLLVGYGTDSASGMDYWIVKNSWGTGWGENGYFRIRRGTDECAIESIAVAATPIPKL

This experiment has as its target human DPP1 enzyme (Homo sapiens (Human), UniProt P53634). Nature of the experiment: Human DPP1 Enzyme IC50 Assay. The format is biochemical. As to conditions: recombinant human DPP1 activated with cathepsin L, H-Gly-Arg-AMC substrate, 10 min pre-incubation at 37° C., MES pH 6.0. The method, then:
Recombinant human DPP1 enzyme (R&D Systems; Minneapolis, MN) was first proteolytically processed into its mature form using recombinant human cathepsin L (R&D Systems) in a buffer consisting of 20 mM citric acid pH 4.5, 150 mM NaCl, 1 mM EDTA and 10 mM DTT. Test articles were applied to activated human DPP1 enzyme in Assay Buffer (25 mM MES pH 6.0, 50 mM NaCl, 5 mM DTT) in a total reaction volume of 125 μL. 25 μL of compound in Assay Buffer plus 5% DMSO was first added to 50 μL of activated human DPP1 enzyme at a concentration of 1 ng/μL and allowed to pre-incubate for 10 minutes at 37° C. after which 50 μL of 1000 μM H-Gly-Arg-AMC substrate (Bachem; St. Torrance, CA) was added, giving final substrate concentration of 400 µM and a final DMSO concentration of 1%. Substrate cleavage was measured for 90 minutes at 37° C., with fluorescence at Excitation/Emission 350/450 nm measured every 5 minutes. DPP1 concentration was interpolated based on its activity relative to a standard curve of activated human recombinant DPP1 enzyme. IC50 values for each compound were calculated via the XLFit (IDBS Version 5.3.1.3) Add-On to Microsoft Excel using the four parameter fit equation y={A+[(B−A)]/[1+((C/x)^D)]}, which appears as equation number 205 (4 Parameter Logistic Model or Sigmoidal Dose-Response Model) in XLFit. Default constraints were used for each Parameter. IC50 was defined as the compound concentration at which 50% of enzyme activity was inhibited when compared to the no-compound control.
In general, IC50 refers to the concentration at which inhibition is half-maximal. For `Cn1c(=O)oc2ccc(-c3ccc(C[C@@H](C#N)NC(=O)[C@H]4CCCCCNC4)cc3)cc21`, the IC50 stood at 49.8 nM.
`Cn1c(=O)oc2ccc(-c3ccc(C[C@@H](C#N)NC(=O)[C@@H]4CNC[C@@](C)(O)CO4)c(F)c3)cc21` (single isomer, unassigned): the IC50 was 14.1 ± 3 nM.
As for `Cn1c(=O)oc2ccc(-c3ccc(C[C@@H](C#N)NC(=O)[C@@H]4CNC[C@](C)(O)CO4)c(F)c3)cc21` (single isomer, unassigned), the IC50 amounted to 13.6 ± 2.1 nM.
Then `Cn1c(=O)oc2ccc(-c3ccc(C[C@@H](C#N)NC(=O)[C@@H]4CNCC(O)(C(F)(F)F)CO4)cc3)cc21` (single isomer, unassigned), with 3750 nM.
Then `C=C[C@]1(O)CNC[C@@H](C(=O)N[C@H](C#N)Cc2ccc(-c3ccc4oc(=O)n(C)c4c3)cc2)OC1` (single isomer, unassigned), with 1470 nM.
The result for `Cn1c(=O)oc2ccc(-c3ccc(C[C@@H](C#N)NC(=O)[C@@H]4CNC[C@](O)(CO)CO4)cc3)cc21` (single isomer, unassigned) reads 781 nM; that for `C=CCC1(O)CNC[C@@H](C(=O)N[C@H](C#N)Cc2ccc(-c3ccc4oc(=O)n(C)c4c3)cc2)OC1` (single isomer, unassigned), 1020 nM.
Turning to `CCC[C@]1(O)CNC[C@@H](C(=O)N[C@H](C#N)Cc2ccc(-c3ccc4oc(=O)n(C)c4c3)cc2)OC1` (single isomer, unassigned), the IC50 is over 5000 nM.
For `CCC[C@@]1(O)CNC[C@@H](C(=O)N[C@H](C#N)Cc2ccc(-c3ccc4oc(=O)n(C)c4c3)cc2)OC1` (single isomer, unassigned), the half-inhibitory concentration (IC50) came out at 769 nM.
With `CC(C)CO[C@@]1(C)CNC[C@@H](C(=O)N[C@H](C#N)Cc2ccc(-c3ccc4oc(=O)n(C)c4c3)cc2)OC1` (single isomer, unassigned), the 50% inhibitory concentration (IC50) is over 5000 nM.
Turning to `CC(C)CO[C@]1(C)CNC[C@@H](C(=O)N[C@H](C#N)Cc2ccc(-c3ccc4oc(=O)n(C)c4c3)cc2)OC1` (single isomer, unassigned), the half-inhibitory concentration (IC50) is over 5000 nM.
The result for `Cn1c(=O)oc2ccc(-c3ccc(C[C@@H](C#N)NC(=O)[C@@H]4CNCC(O)(Cc5ccccn5)CO4)cc3)cc21` (single isomer, unassigned) reads over 5000 nM.
On to `Cn1c(=O)oc2ccc(-c3ccc(C[C@@H](C#N)NC(=O)[C@@H]4CNC[C@@](O)(CO)CO4)cc3)cc21` (single isomer, unassigned), for which the IC50 amounted to 234 nM.
Then `Cn1c(=O)oc2ccc(-c3ccc(C[C@@H](C#N)NC(=O)[C@@H]4CNC[C@]5(CCO5)CO4)cc3)cc21` (single isomer, unassigned), with 729 nM; and `Cn1c(=O)oc2ccc(-c3ccc(C[C@@H](C#N)NC(=O)[C@@H]4CNCC5(CCCO5)CO4)cc3)cc21` (single isomer, unassigned), with 95.9 ± 4.4 nM; and `Cn1c(=O)oc2ccc(-c3ccc(C[C@@H](C#N)NC(=O)C4CCCC(O)CNC4)cc3)cc21` (single isomer, unassigned), with 230 nM.
Then `Cn1c(=O)oc2ccc(-c3ccc(C[C@@H](C#N)NC(=O)[C@@H]4CNC[C@@H](O)CCO4)cc3)cc21` (single isomer, unassigned), with 198 nM; and `Cn1c(=O)oc2ccc(-c3ccc(C[C@@H](C#N)NC(=O)[C@@H]4CNCC[C@H](O)CO4)cc3)cc21` (single isomer, unassigned), with 67.4 nM.
Then `Cn1c(=O)oc2ccc(-c3ccc(C[C@@H](C#N)NC(=O)[C@@H]4CNC[C@@](C)(O)CCO4)cc3)cc21` (single isomer, unassigned), with 243 nM; and `Cn1c(=O)oc2ccc(-c3ccc(C[C@@H](C#N)NC(=O)[C@@H]4CNC[C@](C)(O)CCO4)cc3)cc21` (single isomer, unassigned), with 23.2 ± 2 nM; and `CCO[C@H]1CCO[C@H](C(=O)N[C@H](C#N)Cc2ccc(-c3ccc4oc(=O)n(C)c4c3)cc2)CNC1` (single isomer, unassigned), with over 5000 nM.
On to `CCO[C@H]1CCNC[C@@H](C(=O)N[C@H](C#N)Cc2ccc(-c3ccc4oc(=O)n(C)c4c3)cc2)OC1` (single isomer, unassigned), for which the IC50 turned out to be 457 nM.
Then `Cn1c(=O)oc2ccc(-c3ccc(C[C@@H](C#N)NC(=O)[C@@H]4CNCCC(C)(O)CO4)cc3)cc21` (single isomer, unassigned), with 2240 nM; and `CCO[C@@H]1CCO[C@H](C(=O)N[C@H](C#N)Cc2ccc(-c3ccc4oc(=O)n(C)c4c3)cc2)CNC1` (single isomer, unassigned), with 27 nM; and `CO[C@H]1CCO[C@H](C(=O)N[C@H](C#N)Cc2ccc(-c3ccc4oc(=O)n(C)c4c3)cc2)CNC1` (single isomer, unassigned), with 1140 nM.
As for `Cn1c(=O)oc2ccc(-c3ccc(C[C@@H](C#N)NC(=O)[C@@H]4CNCCCCO4)cc3)cc21` (single isomer, unassigned) [drawing 513], the IC50 is 25.1 ± 3.1 nM.
As to `Cn1c(=O)oc2ccc(-c3ccc(C[C@@H](C#N)NC(=O)[C@@H]4CNC[C@](C)(O)CO4)cc3)cc21` (single isomer, unassigned) [drawing 514], the IC50 was 314 ± 201 nM.
For `CC[C@@]1(O)CNC[C@@H](C(=O)N[C@H](C#N)Cc2ccc(-c3ccc4oc(=O)n(C)c4c3)cc2)OC1` (single isomer, unassigned) [drawing 518], the IC50 was 25.1 nM.
Then `CC[C@]1(O)CNC[C@@H](C(=O)N[C@H](C#N)Cc2ccc(-c3ccc4oc(=O)n(C)c4c3)cc2)OC1` (single isomer, unassigned) [drawing 519], with 2740 nM.
Then `CC(C)[C@]1(O)CNC[C@@H](C(=O)N[C@H](C#N)Cc2ccc(-c3ccc4oc(=O)n(C)c4c3)cc2)OC1` (single isomer, unassigned) [drawing 520], with over 5000 nM; and `Cn1c(=O)oc2ccc(-c3ccc(C[C@@H](C#N)NC(=O)[C@@H]4CNCC5(CCO5)CO4)cc3)cc21` (single isomer, unassigned) [drawing 530], with 4.2 ± 0.8 nM.
The result for `Cn1c(=O)oc2ccc(-c3ccc(C[C@@H](C#N)NC(=O)[C@@H]4CNC[C@@]5(CCO5)CO4)cc3)cc21` (single isomer, unassigned) [drawing 532] reads 3.04 ± 0.8 nM.
Take `Cn1c(=O)oc2ccc(-c3ccc(C[C@@H](C#N)NC(=O)[C@@H]4CNCCCCO4)cc3)cc21` (single isomer, unassigned) [drawing 535]: the IC50 amounted to 22.3 ± 2 nM.
Then `CN1CC2(C1)OC(=O)c1ccc(-c3ccc(C[C@@H](C#N)NC(=O)[C@@H]4CNCCCCO4)cc3)cc12` (single isomer, unassigned) [drawing 536], with 30.9 ± 2 nM; and `CCO[C@@H]1CCNC[C@@H](C(=O)N[C@H](C#N)Cc2ccc(-c3ccc4oc(=O)n(C)c4c3)cc2)OC1` (single isomer, unassigned) [drawing 544], with 4.91 ± 0.9 nM.
For the molecule `CO[C@H]1CCNC[C@@H](C(=O)N[C@H](C#N)Cc2ccc(-c3ccc4oc(=O)n(C)c4c3)cc2)OC1` (single isomer, unassigned) [drawing 547], the IC50 worked out at 74.7 nM.
Then `Cn1c(=O)oc2ccc(-c3ccc(C[C@@H](C#N)NC(=O)C4CCCCCNC4)c(F)c3)cc21` (single isomer, unassigned) [drawing 548], with 15.8 ± 6.8 nM; and `Cn1c(=O)oc2ccc(-c3ccc(C[C@@H](C#N)NC(=O)[C@H]4CCCCCNC4)c(F)c3)cc21` (single isomer, unassigned) [drawing 549], with 140 ± 59.3 nM.
As for `CCO[C@@]1(C)CNC[C@@H](C(=O)N[C@H](C#N)Cc2ccc(-c3ccc4oc(=O)n(C)c4c3)cc2)OC1` (single isomer, unassigned) [drawing 551], the concentration for half-maximal inhibition (IC50) is over 5000 nM.
Then `CCO[C@]1(C)CNC[C@@H](C(=O)N[C@H](C#N)Cc2ccc(-c3ccc4oc(=O)n(C)c4c3)cc2)OC1` (single isomer, unassigned) [drawing 552], with 1680 nM; and `CO[C@@H]1CCO[C@H](C(=O)N[C@H](C#N)Cc2ccc(-c3ccc4oc(=O)n(C)c4c3)cc2)CNC1` (single isomer, unassigned) [drawing 553], with 6.82 ± 0.5 nM; and `CO[C@H]1CCNC[C@@H](C(=O)N[C@H](C#N)Cc2ccc(-c3ccc4oc(=O)n(C)c4c3)cc2)OC1` (single isomer, unassigned) [drawing 554], with 17.4 ± 6 nM.
The result for `Cn1c(=O)oc2ccc(-c3ccc(C[C@@H](C#N)NC(=O)C4CCCCCNC4)cc3)cc21` (stereo partly shown) [I-A] reads 72.6 nM; that for `Cn1c(=O)oc2ccc(-c3ccc(C[C@@H](C#N)NC(=O)C4CCCCCNC4)cc3)cc21` (stereo partly shown) [drawing 511], 85.6 ± 19.5 nM; that for `Cn1c(=O)oc2ccc(-c3ccc(C[C@@H](C#N)NC(=O)C4CCCCCNC4)cc3)cc21` (stereo partly shown) [drawing 512], 61.3 ± 9.9 nM.
In the case of `Cn1c(=O)oc2ccc(-c3ccc(C[C@@H](C#N)NC(=O)[C@@H]4CCCCCNC4)cc3)cc21` [drawing 550], the IC50 turned out to be 603 nM.
